Consider 3 compounds from patent US20130059888A1.

SMILES strings stand for the structures. Counter-ions that a name gives are not always drawn. Like-named read-outs stand apart in the source and are kept apart here.

Series [1] relates to Alzheimer-type dementia patients.
Description: Patient. […] After 11 months from the start of the donepezil hydrochloride administration, concomitant administration of sustained release tablets of sodium valproate (twice a day after breakfast and dinner with 200 mg tablet×2) was started.
Patient. […] After 35 months from the start of the donepezil hydrochloride administration, concomitant administration of sustained release tablets of sodium valproate (twice a day after breakfast and dinner with 200 mg tablet×2) was started.
Patient. […] Concomitant administration of sustained release tablets of sodium valproate (twice a day after breakfast and dinner with 200 mg tablet×2) was started 48 months after the start of the donepezil hydrochloride administration. […] Sustained release tablets of sodium valproate (200 mg tablet×3) were administered from eight months after the start of the concomitant administration.
The subject of series [2] is Alzheimer-type dementia. The settings on record: donepezil hydrochloride alone; cited from earlier work.
Series [3] deals with Alzheimer-type dementia patients. The settings on record: cited from earlier work; for Improving effect on the behavioral and psychological symptoms such as agitation: solely administered, Am. J. Geriatr. Psychiatry 2005.

Consider `COc1cc2c(cc1OC)C(=O)C(CC1CCN(Cc3ccccc3)CC1)C2` (stereo not drawn) [donepezil hydrochloride], for which the Problem behaviors entry in series [1] (Example 1 patient, donepezil alone 5 mg once a day, two months from start) is “did not subside”. Besides, the Symptoms observed result in series [1] (Example 2 patient, donepezil alone 5 mg once a day, two months after start) was “symptoms of incontinentia and the like were observed”; in series [1] (Example 2 patient, donepezil alone, four months after start) it was “visual hallucination, incontinentia, aggressive attitude and the like were observed”; in series [1] (Example 3 patient, donepezil alone 5 mg once a day, 15 months after start), “dressing apraxia was observed”; in series [1] (Example 3 patient, donepezil alone, 23 months after start) it was “visual hallucination, soliloquy, emotional attitude, dressing apraxia, and stereotypy were observed”; in series [1] (Example 3 patient, donepezil alone, 25 months after start), “visual hallucination, delusion of persecution and the like”; in series [1] (Example 4 patient, donepezil alone 5 mg once a day, two months after start), “visual hallucination was not observed, but they spoke only their events in the old days and showed stereotypy”. In series [1] (Example 5 patient, donepezil alone, 41 months after start), the Symptoms observed entry is “refusal of oral administration of medicaments, soliloquy and dressing apraxia”. Moreover, the Inspection findings result in series [1] (Example 5 patient, donepezil alone 5 mg once a day, 24 months after start) is on record as “atrophy of the hippocampus was marked”. The Cognitive disorder entry in series [1] (Example 5 patient, donepezil alone, thirty nine months after start) was “advanced”. Moreover, the “Duration of improving action against the cognitive symptoms” value in series [2] is given as “about one year at the longest”. Further, the “Effect on the cognitive symptoms” value in series [2] was “certain effects for retarding onset or relieving of the cognitive symptoms”.

As for `CCCC(CCC)C(=O)[O-].[Na+]` [sodium valproate], the “Improving effect on the behavioral and psychological symptoms such as agitation” value in series [3] is “no improving effect”.

For the compound `CCCC(CCC)C(=O)O` [valproic acid], the Side reactions result in series [3] (general statement on valproic acid and a salt thereof) is recorded as “little side reactions such as sleepiness”. Also, the “Improving effect on the behavioral and psychological symptoms such as agitation” value in series [3] is listed as “does not exhibit any improving effect”.
